# Results as given in patent publication US20170304002A1, “ELECTROMANIPULATION OF PROTEINS USING NANOSECOND PULSED ELECTRIC FIELDS” (Old Dominion University, priority 2014, published 2017).
# Tested on: Jurkat A3 cells
# Assay: nsPEF-induced dissipation of mitochondria membrane potential (ΔΨm), TMRE flow cytometry
# Assay type: cell-based
# Protocol: Wildtype Jurkat T-lymphocytes (clone A3) were obtained from ATCC (Manassas, Va.) and cultured in RPMI 1640 medium (ATCC) including about 10% fetal bovine serum (FBS) (Atlanta Biologist). N1-S1 HCC cells were obtained from ATCC and cultured in Iscove's Modified Delbecco's Medium including FBS. Both cell lines were maintained in media including about 1% L-glutamine and about 1% penicillin and streptomycin. Cells were treated in cuvettes in cell culture media with nsPEFs using pulse generators, such as, for example as described in Transient features in nanosecond pulsed electric fields differentially modulate mitochondria and viability, PLoS One 7 (2012).
# Loss in ΔΨm was determined by staining cells with either 2 μM JC-1 (5′,6, 6′-tetrachloro-1,1′,3,3′-tetraethylbenzimidazole-carbocyanideiodine, Molecular Probes, Eugene, Oreg., USA), where JC-1 changes from red to green when ΔΨm decreases (data not shown) or with 200 […] TMRE (tetramethylrhodamine ethyl ester, Immunochemistry Technologies LLC, Bloomington, Minn.), where TMRE red emissions decrease when ΔΨm decreases. To determine effects of Ca^2+ on ΔΨm, cells were pre-incubated with or without 20 μM BAPTA-AM and/or 5 mM EGTA for about 30 min before nsPEF treatment. The ΔΨm was determined about 10 min after treatment with nsPEFs. The TMRE red fluorescence was determined (10,000 cells) on a Becton Dickinson FacsAria flow cytometer. Although data shown are with TMRE, near identical results were obtained with JC-1. […]
# Jurkat cells (A3 clone) were pre-incubated with TMRE (200 nM) for 20 min. […] Cell were then analyzed by flow cytometry 10 min after treatment for red (TMRE, ΔΨm) fluorescent and expressed as percent cells showing fluorescence (Y-axis) at each electric field strength (X-axis). In the presence of 3 mM Ca^2+ (absence of EGTA) there was an electric field-dependent decrease in cells expressing a high ΔΨm as indicated by decreases in TMRE fluorescence. […] Statistical significance was determined by the paired Student's t-test (p<0.05; n=3). […]
SMILES,"chelation of Ca2+ influx from the extracellular environment by BAPTA-AM alone (BAPTA-AM 20 μM alone, data not shown)","effect on nsPEF-induced loss of ΔΨm (percent cells showing TMRE fluorescence) (30 min pre-incubation, EGTA 5 mM, BAPTA-AM 20 μM, ten 60 ns pulses, all electric fields up to 60 kV/cm, 10 min after treatment)","block of nsPEF-induced loss of ΔΨm at high electric field (electric field ≧40 kV/cm, EGTA 5 mM, BAPTA-AM 20 μM, ten 60 ns pulses)"
CC(=O)OCOC(=O)CN(CC(=O)OCOC(C)=O)c1ccccc1OCCOc1ccccc1N(CC(=O)OCOC(C)=O)CC(=O)OCOC(C)=O [BAPTA-AM],not sufficient to chelate influxes of Ca^2+ from the extracellular environment,,
O=C(O)CN(CCOCCOCCN(CC(=O)O)CC(=O)O)CC(=O)O [EGTA],,prevented losses in ΔΨm,neither EGTA nor EGTA/BAPTA completely blocked loss of ΔΨm
